Measured values reported in patent EP4538258A1, “IMIDAZOLIDINYL VANILLIC ACID ETHER DERIVATIVE AND USE THEREOF” (Hefei Institute of Pharmaceutical Industry Co., Ltd., priority 2022, dated 2023).
Where a name gives a salt, the structure may show the parent alone. Read-outs that look alike come from different tables or passages of the source.

Experiments:
[1] = system: arteriovenous bypass thrombi; assay: Antithrombotic activity in vivo: arteriovenous bypass thrombosis in rats; parameters: species or system SD rats; conditions: single gavage 15 mg/kg; for inhibition at 15 mg/kg: Rattus norvegicus, po, vs blank control; for Thrombus wet weight: 1 h after administration, blood flow 15 min; for Thrombus wet weight / Thrombus dry weight: x±s, n=8; for Thrombus dry weight: thread dried at 70°C
Protocol: 104 SD rats (purchased from Weitong Lihua Experimental Animal Technology Co., Ltd., certificate number: 20211103Aazz0619000910), male, weighing 180-220 g, were randomly divided into 13 groups according to body weight after 7 days of adaptive feeding, with 8 rats in each group, namely, normal control group, compound A group, compound A methyl ester group, and Example 1-10 compound groups respectively. Each group was given corresponding drugs by gavage (dosage was 15 mg/kg), and the normal control group was given an equal volume of solvent, all of which were given by single gavage. One hour after the last administration, the rats were anesthetized with 3% chloral hydrate intraperitoneally, and the right common carotid artery and left external jugular vein were isolated in a supine position. A polyethylene tube was taken with an inner diameter of 1.5 mm and a length of 10 cm, a 6 cm long silk thread (preweighed) was inserted into it, and the polyethylene tube was filled with normal saline solution of heparin (50 U/ml). One end of the polyethylene tube was inserted into the left external jugular vein, heparin (50 U/kg) was injected, and the other end was inserted into the right common carotid artery. After blood flow was opened for 15 minutes, the blood flow was interrupted and the silk thread was quickly taken out and weighed. The total weight minus the original silk thread weight was the wet weight of the thrombus. The silk thread was placed in an oven for drying at 70°C. The dry weight of the thrombus was obtained by weighing the silk thread minus the original silk thread weight, and the inhibition rate was calculated. [formula] [formula]

[2] = Pharmacokinetics in vivo in rats after gavage; parameters: species or system SD male rats; conditions: rat, p.o. 15 mg/kg (calculated as Compound A), mean value
Protocol: Eighteen SD male rats (purchased from Weitong Lihua Experimental Animal Technology Co., Ltd., certificate number: 20211103Aazz0619000910), weighing 240-280 g, were randomly divided into 6 groups, with 3 rats in each group. The animals were fasted overnight before administration. On the day of administration, the compounds of Examples 3, 4, 5, 6, Compound A, and Compound A methyl ester were gavaged to the animals in each groups respectively, and the dosage was 15 mg/kg (calculated as Compound A). Before administration and 0.25, 0.5, 1, 2, 4, 6, 8, and 24 h after administration, 0.15 mL of blood was collected from the animals through the jugular sinus and placed in an EDTA-K2 anticoagulant tube containing 3 µL of dichlorvos aqueous solution (10 mg/mL). After centrifugation, plasma was collected, and was placed in the sample, and then 10 µL of plasma sample was taken, 500 µL of acetonitrile containing IS (verapamil 5 ng·mL^-1, glibenclamide 50 ng·mL^-1, tolbutamide 200 ng·mL^-1, and diclofenac 200 ng·mL^-1) was added, vortexed for 10 min, and then centrifuged at 3700 rpm for 10 min, and then 70 µL of supernatant and 70 µL of water were added, and vortexed for 10 min. An aliquot of 2 µL of the mixture was injected into the LC-MS/MS system (Triple Quad 5500+: LC-MS-MS-022) to measure blood concentration of the compounds. […]

[3] = read-out: Inhibition rate (thrombus dry weight)
[4] = read-out: Inhibition rate (thrombus wet weight)

SMILES | inhibition at 15 mg/kg [1, 3] [%] | inhibition at 15 mg/kg [1, 4] [%] | Thrombus wet weight [1] | Thrombus dry weight [1] | MRTo-t [2] [h]
COc1cc(C(=O)OCOC(=O)OC(C)C)ccc1OCCn1ccnc1 [Example 5, ((isopropoxycarbonyl)oxy)methyl-4-(2-(1H -imidazol-1-yl)ethoxy)-3-methoxybenzoate] | 55.9 | 53.5 | 47.0±8.7^★★**## mg | 15.0±4.5^★★*## mg | –
CCCOC(=O)c1ccc(OCCn2ccnc2)c(OC)c1 [Example 1, propyl 4-(2-(1H-imidazol-1-yl)ethoxy)-3-methoxybenzoate] | 52.9 | 45.9 | 54.8±12.7^★★*## mg | 16.0±3.4^★★*## mg | –
COc1cc(C(=O)O)ccc1OCCn1ccnc1 [Compound A] | – | – | – | – | 5.4
COc1cc(C(=O)Oc2ccc(C[C@@H](N)C(=O)O)cc2)ccc1OCCn1ccnc1.Cl [Example 10, (R)-4-(4-(2-(1H-imidazol-1-yl)ethoxy)-3-methoxybenzoyloxy)phenylalanine hydrochloride] | 55.1 | 47.5 | 53.1±11.8^★★**## mg | 15.3±2.8^★★*## mg | –
COc1cc(C(=O)Nc2ccc(C[C@H](N)C(=O)O)cc2)ccc1OCCn1ccnc1.Cl [Example 7, (S)-4-(4-(2-(1H-imidazol-1-yl)ethoxy)-3-methoxybenzamido)phenylalanine hydrochloride] | 52.6 | 46.2 | 54.4±9.8^★★*## mg | 16.1±3.3^★★*## mg | –
COc1cc(C(=O)Oc2ccc(C[C@H](N)C(=O)O)cc2)ccc1OCCn1ccnc1.Cl [Example 9, (S)-4-(4-(2-(1H-imidazol-1-yl)ethoxy)-3-methoxybenzoyloxy)phenylalanine hydrochloride] | 57.4 | 49.4 | 51.1±12.7^★★**## mg | 14.5±6.2^★★**## mg | –
COc1cc(C(=O)Nc2ccc(C[C@@H](N)C(=O)O)cc2)ccc1OCCn1ccnc1 [Example 8, (R)-3-(4-(4-(2-(1H-imidazol-1-yl)ethoxy)-3-methoxybenzamido)phenyl)-2-propionic acid hydrochloride] | 57 | 48.6 | 52.0±13.5^★★**## mg | 14.6±3.8^★★**## mg | –
COC(=O)c1ccc(OCCn2ccnc2)c(OC)c1 [Compound A methyl ester, reference compound] | 32.4 | 29.4 | 71.3±8.7^★★ mg | 23.0±8.2^★★ mg | 6.5
COc1cc(C(=O)OC(C)OC(C)=O)ccc1OCCn1ccnc1 (stereo not drawn) [Example 6, 1-acetoxyethyl-4-(2-(1H-imidazol-1-yl)ethoxy)-3-methoxybenzoate] | 58.1 | 55.4 | 45.1±8.6^★★**## mg | 14.3±5.0^★★**## mg | –
COc1cc(C(=O)OCCCCCC(=O)O)ccc1OCCn1ccnc1 [Example 3, 6-(4-(2-(1H -imidazol-1-yl)ethoxy)-3-methoxybenzoyloxy)hexanoic acid] | 64 | 53.3 | 47.3±6.3^★★**## mg | 12.3±5.7^★★**## mg | –
COc1cc(C(=O)OC(C)C)ccc1OCCn1ccnc1.Cl [Example 2, isopropyl 4-(2-(1H-imidazol-1-yl)ethoxy)-3-methoxybenzoate hydrochloride] | 54.8 | 48.3 | 52.3±10.5^★★**## mg | 15.4±5.0^★★*## mg | –
